The source made the active and inactive calls. The rule behind the calls is not given here.
Tests used:
[1] = Inhibition of NMDA receptor at 1 uM
[2] = target: Histamine H1 receptor (Homo sapiens) (UniProt P35367); experiment: Inhibition of histamine H1 receptor at 1 uM
[3] = Inhibition of central imidazoline I2 receptor at 1 uM
[4] = target: T1, Muscarinic acetylcholine receptor M2 (Homo sapiens) (UniProt P08172); experiment: Inhibition of muscarinic M2 receptor at 1 uM
T1 sequence (whole entry): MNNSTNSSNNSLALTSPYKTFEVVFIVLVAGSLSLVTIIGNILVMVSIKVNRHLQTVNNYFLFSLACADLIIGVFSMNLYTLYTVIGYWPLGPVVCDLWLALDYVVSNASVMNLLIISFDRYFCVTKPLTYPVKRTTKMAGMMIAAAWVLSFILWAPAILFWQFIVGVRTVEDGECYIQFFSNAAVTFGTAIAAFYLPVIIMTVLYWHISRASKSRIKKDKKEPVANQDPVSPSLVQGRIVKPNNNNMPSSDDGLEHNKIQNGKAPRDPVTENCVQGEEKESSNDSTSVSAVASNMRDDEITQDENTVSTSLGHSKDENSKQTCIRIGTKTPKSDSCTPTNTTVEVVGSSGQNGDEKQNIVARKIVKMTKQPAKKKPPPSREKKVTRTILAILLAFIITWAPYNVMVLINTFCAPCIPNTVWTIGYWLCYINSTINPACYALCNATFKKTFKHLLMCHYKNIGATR

[5] = target: Muscarinic acetylcholine receptor M3 (Homo sapiens) (UniProt P20309); experiment: Inhibition of muscarinic M3 receptor at 1 uM
[6] = Inhibition of nicotinic acetylcholine receptor at 1 uM
[7] = Inhibition of nicotinic bungarotoxin-sensitive acetylcholine receptor at 1 uM
[8] = target: Mu-type opioid receptor (Homo sapiens) (UniProt P35372); experiment: Inhibition of mu opioid receptor at 1 uM
[9] = Inhibition of ATP-sensitive potassium channel at 1 uM
[10] = target: Prostaglandin E2 receptor EP4 subtype (Homo sapiens) (UniProt P35408); experiment: Inhibition of prostanoid EP4 receptor at 1 uM
[11] = Inhibition of rolipram binding site at 1 uM
[12] = target: Sigma non-opioid intracellular receptor 1 (Homo sapiens) (UniProt Q99720); experiment: Inhibition of sigma 1 receptor at 1 uM
[13] = Inhibition of sigma 2 receptor at 1 uM
[14] = Inhibition of sodium channel site 2 at 1 uM
[15] = target: Sodium-dependent noradrenaline transporter (Homo sapiens) (UniProt P23975); experiment: Inhibition of norepinephrine transporter at 1 uM
[16] = Inhibition of phorbol ester site of PKC at 1 uM
[17] = Inhibition of phencyclidine receptor at 1 uM
[18] = Selectivity for human glucocorticoid receptor over ERalpha
[19] = Selectivity for human glucocorticoid receptor over ERbeta
[20] = Selectivity for human glucocorticoid receptor over progesterone receptor
[21] = Selectivity for human glucocorticoid receptor over androgen receptor
Mus musculus [22] = experiment: Antiinflammatory activity in mouse assessed as reduction of LPS-stimulated TNFalpha expression at 30 mg/kg relative to control; assay type: functional, organism-based; design: dose 30 mg/kg
[23] = target: Beta-1 adrenergic receptor (Homo sapiens) (UniProt P08588); experiment: Inhibition of adrenergic beta-1 receptor at 1 uM
[24] = target: T2, Adenosine receptor A1 (Homo sapiens) (UniProt P30542); experiment: Inhibition of adenosine A1 receptor at 1 uM
T2 sequence (whole entry): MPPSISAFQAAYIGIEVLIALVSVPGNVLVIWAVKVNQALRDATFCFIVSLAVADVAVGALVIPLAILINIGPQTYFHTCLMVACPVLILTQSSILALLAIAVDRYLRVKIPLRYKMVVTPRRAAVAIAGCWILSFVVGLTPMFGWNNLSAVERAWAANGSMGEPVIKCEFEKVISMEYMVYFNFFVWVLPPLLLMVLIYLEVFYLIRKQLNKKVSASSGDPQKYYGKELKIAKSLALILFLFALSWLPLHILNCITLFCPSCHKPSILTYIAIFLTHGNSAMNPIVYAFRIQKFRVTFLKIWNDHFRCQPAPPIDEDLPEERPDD

[25] = target: Adenosine receptor A2a (Homo sapiens) (UniProt P29274); experiment: Inhibition of adenosine A2A receptor at 1 uM
[26] = target: T3, Alpha-1A adrenergic receptor (Homo sapiens) (UniProt P35348); experiment: Inhibition of adrenergic alpha1A receptor at 1 uM
T3 sequence (whole entry): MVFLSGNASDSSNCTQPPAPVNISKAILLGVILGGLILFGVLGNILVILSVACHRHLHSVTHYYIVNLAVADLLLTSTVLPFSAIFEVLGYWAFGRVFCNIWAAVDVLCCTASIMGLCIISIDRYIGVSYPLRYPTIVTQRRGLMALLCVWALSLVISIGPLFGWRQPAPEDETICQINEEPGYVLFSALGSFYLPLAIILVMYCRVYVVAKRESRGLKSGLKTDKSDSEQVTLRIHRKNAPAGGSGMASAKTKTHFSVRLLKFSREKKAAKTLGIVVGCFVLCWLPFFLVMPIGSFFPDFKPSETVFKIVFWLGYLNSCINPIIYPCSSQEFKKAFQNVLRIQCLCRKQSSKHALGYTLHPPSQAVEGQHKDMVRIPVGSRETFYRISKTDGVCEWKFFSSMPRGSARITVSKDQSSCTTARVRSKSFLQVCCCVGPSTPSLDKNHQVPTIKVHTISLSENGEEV

[27] = target: T4, Alpha-1B adrenergic receptor (Homo sapiens) (UniProt P35368); experiment: Inhibition of adrenergic Alpha-1B receptor at 1 uM
T4 sequence (whole entry): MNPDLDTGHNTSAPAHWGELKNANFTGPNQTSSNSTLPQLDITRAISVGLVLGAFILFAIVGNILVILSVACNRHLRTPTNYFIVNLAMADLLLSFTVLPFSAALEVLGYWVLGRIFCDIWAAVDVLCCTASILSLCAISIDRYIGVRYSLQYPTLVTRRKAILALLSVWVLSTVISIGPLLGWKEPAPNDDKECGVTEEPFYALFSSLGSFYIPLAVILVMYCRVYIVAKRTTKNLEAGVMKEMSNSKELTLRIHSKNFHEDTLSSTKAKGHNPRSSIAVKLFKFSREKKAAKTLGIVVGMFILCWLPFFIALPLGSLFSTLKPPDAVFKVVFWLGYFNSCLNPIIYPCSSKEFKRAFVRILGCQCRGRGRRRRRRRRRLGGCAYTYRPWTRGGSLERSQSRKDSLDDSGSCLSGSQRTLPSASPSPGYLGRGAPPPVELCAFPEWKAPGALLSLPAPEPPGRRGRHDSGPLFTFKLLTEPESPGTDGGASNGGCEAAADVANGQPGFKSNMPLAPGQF

[28] = target: T5, Alpha-2A adrenergic receptor (Homo sapiens) (UniProt P08913); experiment: Inhibition of adrenergic alpha2A receptor at 1 uM
T5 sequence (whole entry): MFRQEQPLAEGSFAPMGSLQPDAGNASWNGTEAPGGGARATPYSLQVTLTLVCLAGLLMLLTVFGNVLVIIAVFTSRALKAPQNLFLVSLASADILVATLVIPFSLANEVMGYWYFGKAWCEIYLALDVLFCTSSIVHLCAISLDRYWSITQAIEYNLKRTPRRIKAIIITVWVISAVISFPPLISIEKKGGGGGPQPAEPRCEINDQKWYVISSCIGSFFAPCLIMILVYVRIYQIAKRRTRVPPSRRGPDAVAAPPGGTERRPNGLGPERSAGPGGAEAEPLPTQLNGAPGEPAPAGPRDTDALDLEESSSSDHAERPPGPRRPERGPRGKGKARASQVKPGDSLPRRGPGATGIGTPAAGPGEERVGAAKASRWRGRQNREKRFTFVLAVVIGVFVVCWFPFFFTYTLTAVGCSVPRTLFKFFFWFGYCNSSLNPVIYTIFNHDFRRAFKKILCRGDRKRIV

[29] = target: Beta-2 adrenergic receptor (Homo sapiens) (UniProt P07550); experiment: Inhibition of adrenergic beta2 receptor at 1 uM
[30] = Inhibition of calcium channel L type dihydropyridine binding site at 1 uM
[31] = target: D(1A) dopamine receptor (Homo sapiens) (UniProt P21728); experiment: Inhibition of dopamine D1 receptor at 1 uM
[32] = target: D(2) dopamine receptor (Homo sapiens) (UniProt P14416); experiment: Inhibition of dopamine D2S receptor at 1 uM
[33] = Inhibition of GABAA receptor agonist site at 1 uM; assay type: functional
[34] = Inhibition of central benzodiazepine receptor at 1 uM
hERG (KCNH2) = hERG (KCNH2) (Homo sapiens, UniProt Q12809); experiment: Inhibition of human ERG at 1 uM
Glucocorticoid receptor [35] = target: T6, Glucocorticoid receptor (Homo sapiens, UniProt P04150); experiment: Agonist activity at glucocorticoid receptor in human fibroblast assessed as inhibition of IL-1-beta-induced IL6 production treated 1 hr before IL1-beta challenge measured after 24 hrs by transrepression assay; assay type: functional
T6 sequence (P04150 whole entry): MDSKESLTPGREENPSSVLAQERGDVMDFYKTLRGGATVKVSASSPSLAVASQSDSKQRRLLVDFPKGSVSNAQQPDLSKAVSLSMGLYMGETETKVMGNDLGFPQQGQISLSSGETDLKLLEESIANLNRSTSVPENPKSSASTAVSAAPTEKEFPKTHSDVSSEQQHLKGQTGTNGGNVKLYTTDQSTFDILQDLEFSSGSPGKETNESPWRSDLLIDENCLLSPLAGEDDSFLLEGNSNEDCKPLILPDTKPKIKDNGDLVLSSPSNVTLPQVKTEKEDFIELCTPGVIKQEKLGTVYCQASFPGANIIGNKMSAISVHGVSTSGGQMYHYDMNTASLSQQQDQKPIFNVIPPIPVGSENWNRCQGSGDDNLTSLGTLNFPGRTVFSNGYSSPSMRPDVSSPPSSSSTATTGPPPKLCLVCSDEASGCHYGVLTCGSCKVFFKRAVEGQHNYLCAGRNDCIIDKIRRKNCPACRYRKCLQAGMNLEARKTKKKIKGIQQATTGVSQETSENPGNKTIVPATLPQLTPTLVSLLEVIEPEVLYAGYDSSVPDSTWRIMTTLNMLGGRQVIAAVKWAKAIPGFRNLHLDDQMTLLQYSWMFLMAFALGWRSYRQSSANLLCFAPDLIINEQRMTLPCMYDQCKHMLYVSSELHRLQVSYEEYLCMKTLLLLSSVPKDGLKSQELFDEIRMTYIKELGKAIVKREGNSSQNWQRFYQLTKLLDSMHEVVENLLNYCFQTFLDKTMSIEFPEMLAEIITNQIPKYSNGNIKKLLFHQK

Glucocorticoid receptor [36] = target: T6, Glucocorticoid receptor; experiment: Agonist activity at glucocorticoid receptor in human MDA-kb2 cells transfected with MMTV-LUC assessed as induction of MMTV-LTR/promoter linked LUC gene by luciferase transactivation assay; assay type: functional, cell-based; settings: read-out: EC50
[37] = target: Voltage-gated inwardly rectifying potassium channel KCNH2 (Homo sapiens, UniProt Q12809); experiment: Inhibition of human ERG by patch clamp method
Mus musculus [38] = experiment: Antiinflammatory activity in mouse assessed as reduction of LPS-stimulated TNFalpha expression at 3 mg/kg relative to control; assay type: functional; design: scale not given: the % may be the effect or the level left
Mus musculus [39] = experiment: Antiinflammatory activity in mouse assessed as reduction of LPS-stimulated TNFalpha expression at 60 mg/kg relative to control; assay type: functional; design: scale not given: the % may be the effect or the level left
Mus musculus [40] = experiment: Antiinflammatory activity in mouse assessed as reduction of LPS-stimulated TNFalpha expression at 6 mg/kg relative to control; assay type: functional; design: scale not given: the % may be the effect or the level left
Glucocorticoid receptor [41] = target: T6, Glucocorticoid receptor
Description: Binding affinity to human glucocorticoid receptor by fluorescence polarization competitive binding assay

Beta-1 adrenergic receptor (Homo sapiens), sequence (P08588 whole entry, looked up): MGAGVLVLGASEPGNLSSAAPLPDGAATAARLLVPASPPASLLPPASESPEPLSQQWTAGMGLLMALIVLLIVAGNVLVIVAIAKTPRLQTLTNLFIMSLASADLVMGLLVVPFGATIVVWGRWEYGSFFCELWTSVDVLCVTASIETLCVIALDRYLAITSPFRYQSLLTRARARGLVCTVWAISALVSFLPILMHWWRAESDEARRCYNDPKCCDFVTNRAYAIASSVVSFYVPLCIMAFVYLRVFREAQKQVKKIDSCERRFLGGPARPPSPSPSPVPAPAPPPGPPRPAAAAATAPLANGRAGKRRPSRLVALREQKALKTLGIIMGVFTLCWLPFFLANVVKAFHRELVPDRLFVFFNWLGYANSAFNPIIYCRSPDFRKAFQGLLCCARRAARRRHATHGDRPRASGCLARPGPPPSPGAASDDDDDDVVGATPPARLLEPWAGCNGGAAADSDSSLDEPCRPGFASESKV
Voltage-gated inwardly rectifying potassium channel KCNH2, sequence (Q12809 whole entry): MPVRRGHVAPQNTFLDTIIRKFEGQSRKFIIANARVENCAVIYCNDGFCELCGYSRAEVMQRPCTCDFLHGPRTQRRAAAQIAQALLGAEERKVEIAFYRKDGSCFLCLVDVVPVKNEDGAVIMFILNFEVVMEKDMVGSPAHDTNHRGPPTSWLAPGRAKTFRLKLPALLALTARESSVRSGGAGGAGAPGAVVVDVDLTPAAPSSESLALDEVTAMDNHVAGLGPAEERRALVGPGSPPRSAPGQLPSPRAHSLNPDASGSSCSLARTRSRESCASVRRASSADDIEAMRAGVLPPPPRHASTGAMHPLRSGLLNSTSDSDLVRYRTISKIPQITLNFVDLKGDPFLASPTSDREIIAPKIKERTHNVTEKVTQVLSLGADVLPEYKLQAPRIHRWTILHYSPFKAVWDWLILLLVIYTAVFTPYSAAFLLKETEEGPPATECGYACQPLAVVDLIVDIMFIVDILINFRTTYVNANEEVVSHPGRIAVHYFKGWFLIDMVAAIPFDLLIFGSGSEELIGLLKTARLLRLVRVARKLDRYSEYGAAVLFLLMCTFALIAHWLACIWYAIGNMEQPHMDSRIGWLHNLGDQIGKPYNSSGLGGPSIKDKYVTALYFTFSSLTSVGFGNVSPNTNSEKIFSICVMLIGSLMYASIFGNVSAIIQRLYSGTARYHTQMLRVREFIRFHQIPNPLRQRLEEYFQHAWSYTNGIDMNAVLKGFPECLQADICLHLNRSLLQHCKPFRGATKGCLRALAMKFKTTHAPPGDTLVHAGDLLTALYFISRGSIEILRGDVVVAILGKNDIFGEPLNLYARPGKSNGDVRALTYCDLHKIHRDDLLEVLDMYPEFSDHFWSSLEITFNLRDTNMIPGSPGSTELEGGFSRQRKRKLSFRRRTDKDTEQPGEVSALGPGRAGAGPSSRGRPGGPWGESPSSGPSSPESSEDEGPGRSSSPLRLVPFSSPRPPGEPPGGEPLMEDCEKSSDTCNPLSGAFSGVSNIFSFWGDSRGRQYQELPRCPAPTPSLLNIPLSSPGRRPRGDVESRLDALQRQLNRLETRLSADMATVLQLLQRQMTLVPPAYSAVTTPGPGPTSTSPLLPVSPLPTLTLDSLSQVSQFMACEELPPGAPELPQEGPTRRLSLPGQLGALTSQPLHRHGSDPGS
hERG (KCNH2), sequence (Q12809 whole entry): as above
Prostaglandin E2 receptor EP4 subtype (Homo sapiens), sequence (P35408 whole entry): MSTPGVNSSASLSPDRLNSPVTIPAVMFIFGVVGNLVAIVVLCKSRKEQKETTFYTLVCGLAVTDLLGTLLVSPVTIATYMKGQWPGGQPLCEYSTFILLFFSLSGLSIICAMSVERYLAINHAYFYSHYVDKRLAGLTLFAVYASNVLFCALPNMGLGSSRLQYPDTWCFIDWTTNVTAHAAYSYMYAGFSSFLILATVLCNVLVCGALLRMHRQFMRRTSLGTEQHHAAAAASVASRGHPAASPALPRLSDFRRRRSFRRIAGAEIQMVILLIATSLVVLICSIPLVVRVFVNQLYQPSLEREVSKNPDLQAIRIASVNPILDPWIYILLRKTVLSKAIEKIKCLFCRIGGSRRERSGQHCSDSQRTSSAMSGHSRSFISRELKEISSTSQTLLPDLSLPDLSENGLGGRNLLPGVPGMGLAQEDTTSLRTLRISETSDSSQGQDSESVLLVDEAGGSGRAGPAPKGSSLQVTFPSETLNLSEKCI
Mu-type opioid receptor (Homo sapiens), sequence (P35372 whole entry): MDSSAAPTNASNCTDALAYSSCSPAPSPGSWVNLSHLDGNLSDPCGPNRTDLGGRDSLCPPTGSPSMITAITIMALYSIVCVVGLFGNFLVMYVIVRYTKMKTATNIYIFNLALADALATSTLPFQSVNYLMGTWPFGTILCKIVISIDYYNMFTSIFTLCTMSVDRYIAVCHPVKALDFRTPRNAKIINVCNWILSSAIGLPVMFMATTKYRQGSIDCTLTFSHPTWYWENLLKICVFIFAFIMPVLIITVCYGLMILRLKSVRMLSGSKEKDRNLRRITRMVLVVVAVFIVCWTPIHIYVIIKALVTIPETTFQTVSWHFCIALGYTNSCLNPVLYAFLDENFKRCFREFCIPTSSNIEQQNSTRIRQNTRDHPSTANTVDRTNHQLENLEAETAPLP
Beta-2 adrenergic receptor (Homo sapiens), sequence (P07550 whole entry, looked up): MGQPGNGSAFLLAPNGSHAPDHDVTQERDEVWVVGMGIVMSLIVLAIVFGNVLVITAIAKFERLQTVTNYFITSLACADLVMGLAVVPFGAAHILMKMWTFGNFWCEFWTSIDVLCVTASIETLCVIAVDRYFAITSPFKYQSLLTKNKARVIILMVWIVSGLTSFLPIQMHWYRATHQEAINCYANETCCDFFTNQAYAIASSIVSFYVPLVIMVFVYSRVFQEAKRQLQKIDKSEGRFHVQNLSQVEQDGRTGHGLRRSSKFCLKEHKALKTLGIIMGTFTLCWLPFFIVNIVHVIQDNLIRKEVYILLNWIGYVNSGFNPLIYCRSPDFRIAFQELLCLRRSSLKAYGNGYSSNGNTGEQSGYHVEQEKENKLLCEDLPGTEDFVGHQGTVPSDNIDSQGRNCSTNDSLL
Muscarinic acetylcholine receptor M3 (Homo sapiens), sequence (P20309 whole entry, looked up): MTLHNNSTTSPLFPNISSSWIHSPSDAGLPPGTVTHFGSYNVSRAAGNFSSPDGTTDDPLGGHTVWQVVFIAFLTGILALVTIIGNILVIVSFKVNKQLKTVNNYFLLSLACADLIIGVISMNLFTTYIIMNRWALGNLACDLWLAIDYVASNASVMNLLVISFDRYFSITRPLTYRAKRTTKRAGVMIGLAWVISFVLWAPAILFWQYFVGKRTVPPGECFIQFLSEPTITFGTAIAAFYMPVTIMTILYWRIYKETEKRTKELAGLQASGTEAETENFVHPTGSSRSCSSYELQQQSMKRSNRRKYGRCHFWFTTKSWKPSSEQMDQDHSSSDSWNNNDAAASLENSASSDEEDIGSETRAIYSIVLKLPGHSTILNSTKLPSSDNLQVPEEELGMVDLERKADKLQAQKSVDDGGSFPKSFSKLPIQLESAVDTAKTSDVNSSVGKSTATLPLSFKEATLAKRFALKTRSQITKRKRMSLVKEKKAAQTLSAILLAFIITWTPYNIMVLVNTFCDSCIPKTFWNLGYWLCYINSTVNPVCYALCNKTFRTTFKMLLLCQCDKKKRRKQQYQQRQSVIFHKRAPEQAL
Sigma non-opioid intracellular receptor 1 (Homo sapiens), sequence (Q99720 whole entry): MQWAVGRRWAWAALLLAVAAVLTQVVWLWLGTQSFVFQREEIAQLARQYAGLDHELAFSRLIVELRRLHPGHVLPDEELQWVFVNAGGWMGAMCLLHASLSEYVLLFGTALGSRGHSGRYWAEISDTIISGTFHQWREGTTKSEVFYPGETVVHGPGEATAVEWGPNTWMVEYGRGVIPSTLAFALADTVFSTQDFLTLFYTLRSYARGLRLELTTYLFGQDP

Question: With `OC(c1ccc2c(cnn2-c2ccc(F)cc2)c1)(c1cccc(Cl)c1Cl)C(F)(F)F` (single isomer, unassigned; (+)) as the compound, how does the inhibition [1] read?
Answer: < 50%

Question: What about the inhibition [2] of the same compound?
Answer: < 50%

Question: What about the inhibition [3] of the same compound?
Answer: < 50%

Question: And the inhibition [4]?
Answer: < 50%

Question: What about the inhibition [5] of the same compound?
Answer: < 50%

Question: And the inhibition [6]?
Answer: < 50%

Question: What about the inhibition [7] of the same compound?
Answer: < 50%

Question: What about the inhibition [8] of the same compound?
Answer: < 50%

Question: What about the inhibition [9] of the same compound?
Answer: < 50%

Question: And the inhibition [10]?
Answer: < 50%

Question: And the inhibition [11]?
Answer: < 50%

Question: What about the inhibition [12] of the same compound?
Answer: < 50%

Question: And the inhibition [13]?
Answer: < 50%

Question: What about the inhibition [14] of the same compound?
Answer: < 50%

Question: What about the inhibition [15] of the same compound?
Answer: < 50%

Question: And the inhibition [16]?
Answer: < 50%

Question: What about the inhibition [17] of the same compound?
Answer: < 50%

Question: What about the Ratio [18] of the same compound?
Answer: > 1000

Question: What about the Ratio [19] of the same compound?
Answer: > 1000

Question: What about the Ratio [20] of the same compound?
Answer: > 1000

Question: And the Ratio [21]?
Answer: > 1000

Question: What about the Activity (Mus musculus [22]) of the same compound?
Answer: Active

Question: What about the inhibition [23] of the same compound?
Answer: < 50%

Question: And the inhibition [24]?
Answer: < 50%

Question: And the inhibition [25]?
Answer: < 50%

Question: And the inhibition [26]?
Answer: < 50%

Question: And the inhibition [27]?
Answer: < 50%

Question: What about the inhibition [28] of the same compound?
Answer: < 50%

Question: And the inhibition [29]?
Answer: < 50%

Question: What about the inhibition [30] of the same compound?
Answer: < 50%

Question: What about the inhibition [31] of the same compound?
Answer: < 50%

Question: And the inhibition [32]?
Answer: < 50%

Question: What about the inhibition [33] of the same compound?
Answer: < 50%

Question: And the inhibition [34]?
Answer: < 50%

Question: With `OC(c1ccc2c(cnn2-c2ccc(F)cc2)c1)(c1cccc(Cl)c1Cl)C(F)(F)F` (single isomer, unassigned; (+)) [1-(2,3-DICHLOROPHENYL)-2,2,2-TRIFLUORO-1-(1-(4-FLUOROPHENYL)-1H-INDAZOL-5-YL)ETHANOL (ENANTIOMERIC MIX)] as the compound, how does the inhibition at 1 µM (hERG (KCNH2)) read?
Answer: < 50%

Question: And the EC50 (Glucocorticoid receptor [35])?
Answer: 0.019 µM

Question: And the EC50 (Glucocorticoid receptor [36])?
Answer: 0.35 µM

Question: What about the IC50 [37] of the same compound?
Answer: > 10 µM

Question: What about the Activity (Mus musculus [38]) of the same compound?
Answer: 25%

Question: And the Activity (Mus musculus [39])?
Answer: 68%

Question: And the Activity (Mus musculus [40])?
Answer: 50%

Question: And the IC50 (Glucocorticoid receptor [41])?
Answer: 0.034 µM

Source: ChEMBL document CHEMBL1157802, “5-Functionalized indazoles as glucocorticoid receptor agonists” (Bioorg Med Chem Lett, 2010)
